Laboratory results from patent US10676431B2, “Phenylpyrrolidinone formyl peptide 2 receptor agonists” (BRISTOL-MYERS SQUIBB COMPANY, priority 2018, dated 2020).

Columns and labels:
human FPR2 = human FPR2 (Homo sapiens (Human), UniProt P25090); test: FPR2 cyclic adenosine monophosphate (cAMP) assay; assay type: cell-based; conditions: CHO cells overexpressing human FPR2; forskolin 5 μM, IBMX 200 μM; inhibition of cAMP production, HTRF; read-out: hFPR2 cAMP2 EC50
Method in brief: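 CHO cells overexpressing human FPR2 (2,000/well) or FPR1 (4,000/well) incubated 30 min at room temperature with compound (0.020 nM–100 μM, 1% DMSO), IBMX 200 μM and forskolin (5 μM for FPR2, 10 μM for FPR1). Intracellular cAMP read by HTRF against a cAMP standard curve; inhibition of cAMP production fitted to a 4-parameter logistic.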

human FPR1 = human FPR1 (Homo sapiens (Human), UniProt P21462); test: FPR1 cyclic adenosine monophosphate (cAMP) assay; assay type: cell-based; conditions: CHO cells overexpressing human FPR1; forskolin 10 μM, IBMX 200 μM; inhibition of cAMP production, HTRF; read-out: hFPR1 cAMP EC50
Method in brief: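 CHO cells overexpressing human FPR1 (4,000 per well) were incubated 30 min at room temperature with compound (0.020 nM–100 μM, 1% DMSO), 10 μM forskolin and 200 μM IBMX. Intracellular cAMP was read by HTRF. Inhibition of cAMP production was fitted to a 4-parameter logistic equation.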

Chain of human FPR1 (P21462 whole entry): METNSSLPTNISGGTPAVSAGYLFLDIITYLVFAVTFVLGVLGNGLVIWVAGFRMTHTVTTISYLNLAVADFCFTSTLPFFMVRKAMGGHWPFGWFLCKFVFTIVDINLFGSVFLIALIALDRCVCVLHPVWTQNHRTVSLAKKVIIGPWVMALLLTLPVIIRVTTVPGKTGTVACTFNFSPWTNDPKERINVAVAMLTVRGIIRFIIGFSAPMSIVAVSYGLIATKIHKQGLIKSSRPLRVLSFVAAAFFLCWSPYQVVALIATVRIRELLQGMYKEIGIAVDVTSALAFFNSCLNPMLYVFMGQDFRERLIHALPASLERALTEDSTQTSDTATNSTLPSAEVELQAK
Chain of human FPR2 (P25090 whole entry): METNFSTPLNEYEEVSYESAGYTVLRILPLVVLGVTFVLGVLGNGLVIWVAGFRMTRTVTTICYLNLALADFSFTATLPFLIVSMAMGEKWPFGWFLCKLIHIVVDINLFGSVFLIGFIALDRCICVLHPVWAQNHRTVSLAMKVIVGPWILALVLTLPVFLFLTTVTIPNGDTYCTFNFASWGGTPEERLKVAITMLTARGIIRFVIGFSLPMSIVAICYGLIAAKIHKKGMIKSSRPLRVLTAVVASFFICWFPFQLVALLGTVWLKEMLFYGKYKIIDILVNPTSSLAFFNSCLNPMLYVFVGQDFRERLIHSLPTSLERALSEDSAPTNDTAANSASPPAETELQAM

Row | Structure (SMILES) | EC50 (human FPR2) [nM] | EC50 (human FPR1) [nM]
1 | COc1c(N2CC[C@@H](NC(=O)Nc3ccc(Cl)cc3F)C2=O)ccc(-c2ccccc2NS(C)(=O)=O)c1F [Example 36] | 4.7 | 69
2 | CP(C)(=O)c1ncncc1-c1ccc(N2CC[C@@H](NC(=O)Nc3ccc(Cl)cc3F)C2=O)c(F)c1F [Example 84] | 6 | 280
3 | CS(=O)(=O)Nc1ccccc1-c1ccc(N2CC[C@@H](NC(=O)Nc3ccc(C(F)(F)F)nc3)C2=O)cc1 [Example 20] | 24 | > 10000
4 | CS(=O)(=O)c1ccccc1-c1cc(F)c(N2CC[C@@H](NC(=O)Nc3ccc(Cl)cc3F)C2=O)c(F)c1 [Example 52] | 10 | 1100
5 | CS(=O)(=O)Nc1ccccc1-c1ccc(N2CC[C@@H](NC(=O)Nc3ccc(Cl)cc3)C2=O)c(F)c1F [Example 1, (R)—N-(4′-(3-(3-(4-Chlorophenyl)ureido)-2-oxopyrrolidin-1-yl)-2′,3′-difluoro-[1,1′-biphenyl]-2-yl)methanesulfonamide] | 0.43 | 200
6 | CC(C)c1cc(-c2ccccc2NS(C)(=O)=O)ccc1N1CC[C@@H](NC(=O)Nc2ccc(C(F)(F)F)cc2F)C1=O [Example 37] | 1.4 | 170
7 | COC[C@@H]1C[C@@H](NC(=O)Nc2ccc(Cl)cc2F)C(=O)N1c1ccc(-c2ccccc2P(C)(C)=O)c(F)c1F [Example 30] | 0.22 | 83
8 | CS(=O)(=O)Nc1ccccc1-c1ccc(N2CC[C@@H](NC(=O)Nc3cnc(C(F)(F)F)cn3)C2=O)c(F)c1F [Example 18] | 20 | 2100
9 | O=C(Nc1ccc(Cl)cc1F)N[C@@H]1CCN(c2ccc(-c3ccccc3F)c(F)c2F)C1=O [Example 21] | 31 | 390
10 | CS(=O)(=O)Nc1ccccc1-c1ccc(N2CC[C@@H](NC(=O)Nc3ccc(C(F)(F)F)cc3)C2=O)cc1 [Example 14] | 7.2 | 600
11 | CP(C)(=O)c1ccccc1-c1ccc(N2CC[C@@H](NC(=O)Nc3ccc(C(F)(F)F)cn3)C2=O)c(F)c1F [Example 64] | 8.8 | 2900
12 | N#Cc1ccccc1-c1ccc(N2CC[C@@H](NC(=O)Nc3ccc(Cl)cc3F)C2=O)c(F)c1F [Example 9] | 2.1 | 31
13 | CS(=N)(=O)c1ccccc1-c1ccc(N2CC[C@@H](NC(=O)Nc3ccc(Cl)cc3F)C2=O)c(F)c1F (stereo partly drawn) [Example 59] | 1.7 | 140
14 | CP(C)(=O)c1ccccc1-c1ccc(N2CC[C@@H](NC(=O)Nc3ccc(OC(F)(F)F)cc3F)C2=O)c(F)c1F [Example 69] | 22 | 5000

More lines, now with the values ahead:

Row | EC50 (human FPR2) [nM] | EC50 (human FPR1) [nM] | Structure (SMILES)
15 | 4.4 | 25 | CP(C)(=O)c1ccccc1-c1ccc(N2CC[C@@H](NC(=O)Nc3ccc(C(F)(F)F)cc3F)C2=O)c(F)c1C1CC1 [Example 89, (R)-1-(1-(2-Cyclopropyl-2′-(dimethylphosphoryl)-3-fluoro-[1,1′-biphenyl]-4-yl)-2-oxopyrrolidin-3-yl)-3-(2-fluoro-4-(trifluoromethyl)phenyl)urea]
16 | 5.7 | 3000 | CC1(C)CN(c2ccc(-c3ccccc3P(C)(C)=O)c(F)c2F)C(=O)[C@@H]1NC(=O)Nc1cnc(Cl)cn1 [Example 130]
17 | 0.39 | 590 | CC1(C)CN(c2ccc(-c3cccnc3P(C)(C)=O)c(F)c2F)C(=O)[C@@H]1NC(=O)Nc1ccc(Cl)cc1F [Example 113]
18 | 1.7 | 570 | CC1(C)CN(c2ccc(-c3ccccc3P(C)(C)=O)c(F)c2F)C(=O)[C@@H]1NC(=O)Nc1ccc(C(F)(F)F)cc1F [Example 102]
19 | 0.57 | 350 | CC1(C)CN(c2ccc(-c3ccccc3P(C)(C)=O)c(F)c2F)C(=O)[C@@H]1NC(=O)Nc1ccc(Cl)cc1F [Example 103]
20 | 2.9 | 720000 | CP(C)(=O)c1ccccc1-c1ccc(N2CC[C@@H](NC(=O)Nc3ccc(Cl)s3)C2=O)c(F)c1F [Example 135]
21 | 11 | 5.8 | CP(C)(=O)c1ccccc1-c1ccc(N2CC[C@@H](NC(=O)Nc3ccc(Cl)cc3F)C2=O)c(C(F)F)c1F [Example 107]
